Experimental data: patent US9562899B2, “Method of detecting OXA-048 carbapenemase producing bacteria” (BIOMÉRIEUX, priority 2012, dated 2017)
Like-named read-outs stand apart in the source and are kept apart here.

Columns and labels:
[1] = test system: KPC strains; experiment: Temocillin MIC with EDTA in the medium (Example 2); format: cell-based, Enterobacteriaceae; settings: Ex 2, MIC in mg/l
Text: (§1) Optimization of the Detection Specificity by Introducing Specific Inhibitors Inhibition of Class B Strains (NDM, VIM, IMP) by Adding EDTA
(§2) Identical to that used to determine the temocillin MICs by agar dilution (example 1).
(§3) For each temocillin concentration, the following concentrations of active EDTA will be tested in the form of disodium EDTA: 0, 1.77, 2.12, 2.47 and 2.83 mmol/l.
(§4) Method: identical to the method used in example 1.

[2] = test system: BLSE strains; experiment: Temocillin MIC with EDTA in the medium (Example 2); format: cell-based, Enterobacteriaceae; settings: Ex 2, MIC in mg/l
Text: as §1, §2, §3, §4

[3] = test system: OXA-48 strains; settings: Livermore et al., cited from earlier work
[4] = test system: strains with a metallo-carbapenemase; settings: Livermore et al.; cited from earlier work
[5] = test system: VIM strains; format: cell-based, Enterobacteriaceae; settings: Ex 2, MIC in mg/l
Text: as §1, §2, §3, §4

CO[C@@]1(NC(=O)C(C(=O)O)c2ccsc2)C(=O)N2[C@@H](C(=O)O)C(C)(C)S[C@@H]21 (some centres unmarked) [temocillin]
No. of KPC strains with MIC 200 ([1]; 0 mmol/l of EDTA): 0 | No. of KPC strains with MIC 300 ([1]; 0 mmol/l of EDTA): 0 | No. of KPC strains with MIC >300 ([1]; 0 mmol/l of EDTA): 1 | No. of KPC strains with MIC ≦50 ([1]; 0 mmol/l of EDTA): 18 | No. of KPC strains with MIC 150 ([1]; 1.77 mmol/l of active EDTA): 0 | No. of KPC strains with MIC 200 ([1]; 1.77 mmol/l of active EDTA): 0 | No. of KPC strains with MIC 300 ([1]; 1.77 mmol/l of active EDTA): 0 | No. of KPC strains with MIC >300 ([1]; 1.77 mmol/l of active EDTA): 1 | No. of KPC strains with MIC ≦50 ([1]; 1.77 mmol/l of active EDTA): 18 | No. of KPC strains with MIC 150 ([1]; 2.12 mmol/l of active EDTA): 0 | No. of KPC strains with MIC 200 ([1]; 2.12 mmol/l of active EDTA): 0 | No. of KPC strains with MIC 300 ([1]; 2.12 mmol/l of active EDTA): 0 | No. of KPC strains with MIC >300 ([1]; 2.12 mmol/l of active EDTA): 1 | No. of KPC strains with MIC ≦50 ([1]; 2.12 mmol/l of active EDTA): 18 | No. of KPC strains with MIC 150 ([1]; 2.47 mmol/l of active EDTA): 0 | No. of KPC strains with MIC 200 ([1]; 2.47 mmol/l of active EDTA): 0 | No. of KPC strains with MIC 300 ([1]; 2.47 mmol/l of active EDTA): 0 | No. of KPC strains with MIC >300 ([1]; 2.47 mmol/l of active EDTA): 1 | No. of KPC strains with MIC ≦50 ([1]; 2.47 mmol/l of active EDTA): 18 | No. of KPC strains with MIC 150 ([1]; 2.83 mmol/l of active EDTA): 0 | No. of KPC strains with MIC 200 ([1]; 2.83 mmol/l of active EDTA): 0 | No. of KPC strains with MIC 300 ([1]; 2.83 mmol/l of active EDTA): 0 | No. of KPC strains with MIC >300 ([1]; 2.83 mmol/l of active EDTA): 0 | No. of KPC strains with MIC ≦50 ([1]; 2.83 mmol/l of active EDTA): 19 | No. of BLSE strains with MIC 150 ([2]; 0 mmol/l of EDTA): 0 | No. of BLSE strains with MIC 200 ([2]; 0 mmol/l of EDTA): 0 | No. of BLSE strains with MIC 300 ([2]; 0 mmol/l of EDTA): 0 | No. of BLSE strains with MIC >300 ([2]; 0 mmol/l of EDTA): 0 | No. of BLSE strains with MIC ≦50 ([2]; 0 mmol/l of EDTA): 10 | No. of BLSE strains with MIC 150 ([2]; 1.77 mmol/l of active EDTA): 0 | No. of BLSE strains with MIC 200 ([2]; 1.77 mmol/l of active EDTA): 0 | No. of BLSE strains with MIC 300 ([2]; 1.77 mmol/l of active EDTA): 0 | No. of BLSE strains with MIC >300 ([2]; 1.77 mmol/l of active EDTA): 0 | No. of BLSE strains with MIC ≦50 ([2]; 1.77 mmol/l of active EDTA): 10 | No. of BLSE strains with MIC 150 ([2]; 2.12 mmol/l of active EDTA): 1 | No. of BLSE strains with MIC 200 ([2]; 2.12 mmol/l of active EDTA): 0 | No. of BLSE strains with MIC 300 ([2]; 2.12 mmol/l of active EDTA): 0 | No. of BLSE strains with MIC >300 ([2]; 2.12 mmol/l of active EDTA): 0 | No. of BLSE strains with MIC ≦50 ([2]; 2.12 mmol/l of active EDTA): 9 | No. of BLSE strains with MIC 150 ([2]; 2.47 mmol/l of active EDTA): 0 | No. of BLSE strains with MIC 200 ([2]; 2.47 mmol/l of active EDTA): 0 | No. of BLSE strains with MIC 300 ([2]; 2.47 mmol/l of active EDTA): 0 | No. of BLSE strains with MIC >300 ([2]; 2.47 mmol/l of active EDTA): 0 | No. of BLSE strains with MIC ≦50 ([2]; 2.47 mmol/l of active EDTA): 10 | No. of BLSE strains with MIC 150 ([2]; 2.83 mmol/l of active EDTA): 0 | No. of BLSE strains with MIC 200 ([2]; 2.83 mmol/l of active EDTA): 0 | No. of BLSE strains with MIC 300 ([2]; 2.83 mmol/l of active EDTA): 0 | No. of BLSE strains with MIC >300 ([2]; 2.83 mmol/l of active EDTA): 0 | No. of BLSE strains with MIC ≦50 ([2]; 2.83 mmol/l of active EDTA): 10 | strains resistant to temocillin ([3]; OXA-48 strains): 18/19 | minimum inhibitory concentration (MIC) ([3]; resistant strains, growth at final concentration tested of 128 mg/l): ≥ 256 µg/mL | strains resistant to temocillin [4]: 32/35 | No. of VIM strains with MIC 150 ([5]; 0 mmol/l of EDTA): 6 | No. of VIM strains with MIC 200 ([5]; 0 mmol/l of EDTA): 1 | No. of VIM strains with MIC 300 ([5]; 0 mmol/l of EDTA): 0 | No. of VIM strains with MIC >300 ([5]; 0 mmol/l of EDTA): 1 | No. of VIM strains with MIC ≦50 ([5]; 0 mmol/l of EDTA): 9 | No. of VIM strains with MIC 150 ([5]; 1.77 mmol/l of active EDTA): 0 | No. of VIM strains with MIC 200 ([5]; 1.77 mmol/l of active EDTA): 0 | No. of VIM strains with MIC 300 ([5]; 1.77 mmol/l of active EDTA): 0 | No. of VIM strains with MIC >300 ([5]; 1.77 mmol/l of active EDTA): 0 | No. of VIM strains with MIC ≦50 ([5]; 1.77 mmol/l of active EDTA): 17 | No. of VIM strains with MIC 150 ([5]; 2.12 mmol/l of active EDTA): 0 | No. of VIM strains with MIC 200 ([5]; 2.12 mmol/l of active EDTA): 0 | No. of VIM strains with MIC 300 ([5]; 2.12 mmol/l of active EDTA): 0 | No. of VIM strains with MIC >300 ([5]; 2.12 mmol/l of active EDTA): 0 | No. of VIM strains with MIC ≦50 ([5]; 2.12 mmol/l of active EDTA): 17 | No. of VIM strains with MIC 150 ([5]; 2.47 mmol/l of active EDTA): 0 | No. of VIM strains with MIC 200 ([5]; 2.47 mmol/l of active EDTA): 0 | No. of VIM strains with MIC 300 ([5]; 2.47 mmol/l of active EDTA): 0 | No. of VIM strains with MIC >300 ([5]; 2.47 mmol/l of active EDTA): 0 | No. of VIM strains with MIC ≦50 ([5]; 2.47 mmol/l of active EDTA): 17 | No. of VIM strains with MIC 150 ([5]; 2.83 mmol/l of active EDTA): 0 | No. of VIM strains with MIC 200 ([5]; 2.83 mmol/l of active EDTA): 0 | No. of VIM strains with MIC 300 ([5]; 2.83 mmol/l of active EDTA): 0 | No. of VIM strains with MIC >300 ([5]; 2.83 mmol/l of active EDTA): 0 | No. of VIM strains with MIC ≦50 ([5]; 2.83 mmol/l of active EDTA): 17
